Measurements as given in patent US7683064B2, “Inhibitors of Bruton's tyrosine kinase” (Roche Palo Alto LLC, priority 2008, dated 2010).

Biological target: T1, Btk enzyme (His-tagged, full-length) (Homo sapiens, UniProt Q06187)
T1 construct: 5-10 nM Btk enzyme (His-tagged, full-length); His tag
Assay: Bruton's Tyrosine Kinase (Btk) inhibition assay, 33P filtration capture
Type: biochemical
Conditions: 100 μM ATP, 30 μM biotinylated SH2 peptide substrate, 5-10 nM Btk, 30 min at 30° C.
Description: The assay is a capture of radioactive ^33P phosphorylated product through filtration. The interactions of Btk, biotinylated SH2 peptide substrate (Src homology), and ATP lead to phosphorylation of the peptide substrate. Biotinylated product is bound streptavidin sepharose beads. All bound, radiolabeled products are detected by scintillation counter.
Plates assayed are 96-well polypropylene (Greiner) and 96-well 1.2 μm hydrophilic PVDF filter plates (Millipore). Concentrations reported here are final assay concentrations: 10-100 μM compounds in DMSO (Burdick and Jackson), 5-10 nM Btk enzyme (His-tagged, full-length), 30 μM peptide substrate (Biotin-Aca-[…]-NH2), 100 μM ATP (Sigma), 8 mM imidazole (Sigma, pH 7.2), 8 mM glycerol-2-phosphate (Sigma), 200 μM EGTA (Roche Diagnostics), 1 mM MnCl2 (Sigma), 20 mM MgCl2 (Sigma), 0.1 mg/ml BSA (Sigma), 2 mM DTT (Sigma), 1 μCi ^33P ATP (Amersham), 20% streptavidin sepharose beads (Amersham), 50 mM EDTA (Gibco), 2 M NaCl (Gibco), 2 M NaCl w/1% phosphoric acid (Gibco), microscint-20 (Perkin Elmer).
IC50 determinations are calculated from 10 data points per compound utilizing data produced from a standard 96-well plate assay template. One control compound and seven unknown inhibitors were tested on each plate and each plate was run twice. Typically, compounds were diluted in half-log starting at 100 μM and ending at 3 nM. The control compound was staurosporine. Background was counted in the absence of peptide substrate. Total activity was determined in the presence of peptide substrate. The following protocol was used to determine Btk inhibition.
1) Sample preparation: The test compounds were diluted at half-log increments in assay buffer (imidazole, glycerol-2-phosphate, EGTA, MnCl2, MgCl2, BSA).
• a.) rinse beads by centrifuging at 500 g • b.) reconstitute the beads with PBS and EDTA to produce a 20% bead slurry 3) Pre-incubate reaction mix without substrate (assay buffer, DTT, ATP, ^33P ATP) and mix with substrate (assay buffer, DTT, ATP, ^33P ATP, peptide substrate) 30° C. for 15 min. 4) To start assay, pre-incubate 10 μL Btk in enzyme buffer (imidazole, glycerol-2-phos-phate, BSA) and 10 μL of test compounds for 10 min at RT. 5) Add 30 μL reaction mixture without or with substrate to Btk and compounds. 6) Incubate 50 μL total assay mix for 30 min at 30° C. 7) Transfer 40 μL of assay to 150 μL bead slurry in filter plate to stop reaction. 8) Wash filter plate after 30 min, with following steps • a. 3×250 μL NaCl • b. 3×250 μL NaCl containing 1% phosphoric acid • c.

T1 sequence (Q06187 whole entry): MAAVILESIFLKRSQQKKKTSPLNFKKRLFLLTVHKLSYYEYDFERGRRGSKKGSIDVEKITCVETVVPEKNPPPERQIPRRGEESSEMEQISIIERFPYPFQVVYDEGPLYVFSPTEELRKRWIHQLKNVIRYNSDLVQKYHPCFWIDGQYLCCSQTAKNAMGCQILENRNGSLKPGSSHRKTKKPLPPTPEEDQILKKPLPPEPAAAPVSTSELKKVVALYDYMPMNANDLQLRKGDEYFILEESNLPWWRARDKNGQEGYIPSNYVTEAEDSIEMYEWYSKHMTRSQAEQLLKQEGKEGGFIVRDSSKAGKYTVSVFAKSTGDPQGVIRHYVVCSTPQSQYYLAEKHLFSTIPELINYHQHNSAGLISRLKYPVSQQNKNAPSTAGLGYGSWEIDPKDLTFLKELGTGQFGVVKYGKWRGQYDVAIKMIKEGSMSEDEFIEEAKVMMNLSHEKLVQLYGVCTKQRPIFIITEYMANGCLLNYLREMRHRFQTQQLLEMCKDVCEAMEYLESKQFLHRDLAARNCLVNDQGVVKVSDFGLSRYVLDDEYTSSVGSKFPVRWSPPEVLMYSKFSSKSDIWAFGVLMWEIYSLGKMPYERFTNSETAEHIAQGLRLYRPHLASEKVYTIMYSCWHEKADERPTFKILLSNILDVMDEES

Row | IC50 | SMILES
1 | 420 nM | CN(C)c1ccc2c(c1)CCN(c1cccc(-c3cc(Nc4ccc(C(=O)N5CCOCC5)cn4)c(=O)n(C)c3)c1)C2=O [Example I-1, 6-Dimethylamino-2-(3-{1-methyl-5-[5-(morpholine-4-carbonyl)-pyridin-2-ylamino]-6-oxo-1,6-dihydro-pyridin-3-yl}-phenyl)-3,4-dihydro-2H-isoquinolin-1-one]
2 | 40 nM | CN(C)c1ccc2c(c1)CCN(c1cccc(-c3cc(Nc4ccc(C(=O)N5CCOCC5)cn4)c(=O)n(C)c3)c1CO)C2=O [Example I-2, 6-Dimethylamino-2-(2-hydroxymethyl-3-{1-methyl-5-[5-(morpholine-4-carbonyl)-pyridin-2-ylamino]-6-oxo-1,6-dihydro-pyridin-3-yl}-phenyl)-3,4-dihydro-2H-isoquinolin-1-one]
3 | 370 nM | Cc1c(-c2cc(Nc3ccc(C(=O)N4CCOCC4)cn3)c(=O)n(C)c2)cccc1-c1c[nH]c2cc(N(C)C)ccc2c1=O [II-2, 7-Dimethylamino-3-(2-methyl-3-{1-methyl-5-[5-(morpholine-4-carbonyl)-pyridin-2-ylamino]-6-oxo-1,6-dihydro-pyridin-3-yl}-phenyl)-1H-quinolin-4-one]
4 | 1080 nM | CN(C)c1ccc2c(=O)n(-c3cccc(-c4cc(Nc5ccc(C(=O)N6CCOCC6)cn5)c(=O)n(C)c4)c3)ccc2c1 [III-1, 6-Dimethylamino-2-(3-{1-methyl-5-[5-(morpholine-4-carbonyl)-pyridin-2-ylamino]-6-oxo-1,6-dihydro-pyridin-3-yl}-phenyl)-2H-isoquinolin-1-one]
5 | 2760 nM | Cc1c(-c2cc(Nc3ccc(C(=O)N4CCOCC4)cn3)c(=O)n(C)c2)cccc1-n1ccc2cc(N(C)C)ccc2c1=O [III-2, 6-Dimethylamino-2-(2-methyl-3-{1-methyl-5-[5-(morpholine-4-carbonyl)-pyridin-2-ylamino]-6-oxo-1,6-dihydro-pyridin-3-yl}-phenyl)-2H-isoquinolin-1-one]
